From article PMC4460250, “Systems Pharmacology Dissecting Holistic Medicine for Treatment of Complex Diseases: An Example Using Cardiocerebrovascular Diseases Treated by TCM” (Evidence-based Complementary and Alternative Medicine : eCAM, 2015)

Assays:
[1] = in vivo
[2] = in vivo; cited from earlier work

| Compound | Class(High: HIA value ≥0.7; Low: HIA value < 0.7) [1] | HIA(Human Intestinal Absorption) [2] |
| --- | --- | --- |
| O[C@@](CCN1CCCC1)(c1ccccc1)C1CCCCC1 [Procyclidine(R)] | High (key: High: HIA value ≥0.7; Low: HIA value < 0.7) | 1 |
| C[C@H](CN1c2ccccc2Sc2ccccc21)N(C)C [Promethazine(R)] | High (key: High: HIA value ≥0.7; Low: HIA value < 0.7) | 0.95 |
| C[C@@H](CN1c2ccccc2Sc2ccccc21)N(C)C [Promethazine(S)] | High (key: High: HIA value ≥0.7; Low: HIA value < 0.7) | 0.95 |
| CC(C)c1cccc(C(C)C)c1O [Propofol] | High (key: High: HIA value ≥0.7; Low: HIA value < 0.7) | 1 |
| C[C@@H](O)Cn1cnc2c1c(=O)n(C)c(=O)n2C [Proxyphylline(R)] | High (key: High: HIA value ≥0.7; Low: HIA value < 0.7) | 1 |
| C[C@H](O)Cn1cnc2c1c(=O)n(C)c(=O)n2C [Proxyphylline(S)] | High (key: High: HIA value ≥0.7; Low: HIA value < 0.7) | 1 |
| C=CCC1(C(C)CCC)C(=O)NC(=O)NC1=O (stereo not shown) [Quinalbarbitone] | High (key: High: HIA value ≥0.7; Low: HIA value < 0.7) | 0.9 |
| CCOC(=O)[C@H](CCc1ccccc1)N[C@@H](C)C(=O)N1[C@H](C(=O)O)C[C@@H]2CCC[C@@H]21 [Ramipril] | Low (key: High: HIA value ≥0.7; Low: HIA value < 0.7) | 0.6 |
| CCN1CCC[C@H]1CNC(=O)c1c(OC)ccc(Br)c1OC [Remoxipride(S)] | High (key: High: HIA value ≥0.7; Low: HIA value < 0.7) | 1 |
| CCOc1cc(CC(=O)N[C@@H](CC(C)C)c2ccccc2N2CCCCC2)ccc1C(=O)O [Repaglinide(S)] | High (key: High: HIA value ≥0.7; Low: HIA value < 0.7) | 1 |
| Cn1c(=O)c2c(ncn2CCCNC[C@H](O)c2cc(O)cc(O)c2)n(C)c1=O [Reproterol(R)] | Low (key: High: HIA value ≥0.7; Low: HIA value < 0.7) | 0.6 |
| Cn1c(=O)c2c(ncn2CCCNC[C@@H](O)c2cc(O)cc(O)c2)n(C)c1=O [Reproterol(S)] | Low (key: High: HIA value ≥0.7; Low: HIA value < 0.7) | 0.6 |
| CCN(C)C(=O)Oc1cccc([C@H](C)N(C)C)c1 [Rivastigmine] | High (key: High: HIA value ≥0.7; Low: HIA value < 0.7) | 0.98 |
| C#CCN(C)[C@H](C)Cc1ccccc1 [Selegiline(R)] | High (key: High: HIA value ≥0.7; Low: HIA value < 0.7) | 1 |
| CC(C)C[C@@H](N(C)C)C1(c2ccc(Cl)cc2)CCC1 [Sibutramine(R)] | High (key: High: HIA value ≥0.7; Low: HIA value < 0.7) | 0.77 |
| CC(C)C[C@H](N(C)C)C1(c2ccc(Cl)cc2)CCC1 [Sibutramine(S)] | High (key: High: HIA value ≥0.7; Low: HIA value < 0.7) | 0.77 |
| CC(C)NC[C@H](O)c1ccc(NS(C)(=O)=O)cc1 [Sotalol(R)] | High (key: High: HIA value ≥0.7; Low: HIA value < 0.7) | 0.95 |
| CC(C)NC[C@@H](O)c1ccc(NS(C)(=O)=O)cc1 [Sotalol(S)] | High (key: High: HIA value ≥0.7; Low: HIA value < 0.7) | 0.95 |

| Compound | Class(High: HIA value ≥0.7; Low: HIA value < 0.7) [1] | HIA(Human Intestinal Absorption) [2] |
| --- | --- | --- |
| Cc1cc(C)nc(NS(=O)(=O)c2ccc(N)cc2)n1 [Sulfamethazine] | High (key: High: HIA value ≥0.7; Low: HIA value < 0.7) | 0.95 |
| CCN1CCCC1CNC(=O)c1cc(S(N)(=O)=O)ccc1OC (stereo not shown) [Sulpiride] | Low (key: High: HIA value ≥0.7; Low: HIA value < 0.7) | 0.44 |
| CCN1CCC[C@@H]1CNC(=O)c1cc(S(=O)(=O)CC)ccc1OC [Sultopride(R)] | High (key: High: HIA value ≥0.7; Low: HIA value < 0.7) | 0.89 |
| CCN1CCC[C@H]1CNC(=O)c1cc(S(=O)(=O)CC)ccc1OC [Sultopride(S)] | High (key: High: HIA value ≥0.7; Low: HIA value < 0.7) | 0.89 |
| COc1cc2nc(N3CCN(C(=O)[C@H]4CCCO4)CC3)nc(N)c2cc1OC [Terazosin(R)] | High (key: High: HIA value ≥0.7; Low: HIA value < 0.7) | 0.91 |
| COc1cc2nc(N3CCN(C(=O)[C@@H]4CCCO4)CC3)nc(N)c2cc1OC [Terazosin(S)] | High (key: High: HIA value ≥0.7; Low: HIA value < 0.7) | 0.91 |
| CC(C)(C)NC[C@H](O)c1cc(O)cc(O)c1 [Terbutaline(R)] | Low (key: High: HIA value ≥0.7; Low: HIA value < 0.7) | 0.63 |
| CC(C)(C)NC[C@@H](O)c1cc(O)cc(O)c1 [Terbutaline(S)] | Low (key: High: HIA value ≥0.7; Low: HIA value < 0.7) | 0.63 |
| CC(C)(C)c1ccc([C@H](O)CCCN2CCC(C(O)(c3ccccc3)c3ccccc3)CC2)cc1 [Terfenadine(R)] | High (key: High: HIA value ≥0.7; Low: HIA value < 0.7) | 1 |
| CC(C)(C)c1ccc([C@@H](O)CCCN2CCC(C(O)(c3ccccc3)c3ccccc3)CC2)cc1 [Terfenadine(S)] | High (key: High: HIA value ≥0.7; Low: HIA value < 0.7) | 1 |
| C[C@]12CC[C@H]3[C@@H](CCC4=CC(=O)CC[C@@]43C)[C@@H]1CC[C@@H]2O [Testosterone] | High (key: High: HIA value ≥0.7; Low: HIA value < 0.7) | 1 |
| CCCCCc1cc(O)c2c(c1)OC(C)(C)[C@@H]1CCC(C)=C[C@@H]21 [Tetrahydrocannabinol] | High (key: High: HIA value ≥0.7; Low: HIA value < 0.7) | 0.93 |
| CCOC(=O)C1(c2ccccc2)CCC=CC1N(C)C (stereo not shown) [Tilidine] | High (key: High: HIA value ≥0.7; Low: HIA value < 0.7) | 1 |
| CC(C)(C)NC[C@H](O)COc1nsnc1N1CCOCC1 [Timolol(S)] | High (key: High: HIA value ≥0.7; Low: HIA value < 0.7) | 0.95 |
| Cc1cccc(C)c1NC(=O)[C@@H](C)N [Tocainide(R)] | High (key: High: HIA value ≥0.7; Low: HIA value < 0.7) | 1 |
| Cc1cccc(C)c1NC(=O)[C@H](C)N [Tocainide(S)] | High (key: High: HIA value ≥0.7; Low: HIA value < 0.7) | 1 |
| COc1cccc(C2(O)CCCCC2CN(C)C)c1 (stereo not shown) [Tramadol] | High (key: High: HIA value ≥0.7; Low: HIA value < 0.7) | 0.9 |
